Experimental data from EP0008556A1, “Bis 7H pyridocarbazole derivatives and pharmaceutical compositions containing them” (ANVAR Agence Nationale de Valorisation de la Recherche, priority 1978, dated 1980).

Tests used:
Format in all cases: in vivo, souris
leucémie L1210 = assay: Therapeutic effect on L1210 leukemia in mice, single intraperitoneal injection 24 h after intraperitoneal tumour inoculation; settings: for Augmentation survie traitées/contrôle x 100 / Survie moyenne en jours des souris traitées ± erreur standard. / % de cellules tumorales tuées par le traitement: single i.p. injection, inoculum 10^5 L1210 cells; for % de cellules tumorales tuées par le traitement: calculated by Skipper method; for Nombre d'animaux guéris: cured = survival more than 45 days after inoculation; for index chimiothérapeutique: leucémie L1210, read from Table VI; for fraction des cellules survivantes N/No après traitement en fonction de la dose (fraction de la dose infra-létale DLo): figure 2, comparison with dérivé 34 (DIE)
Excerpt: Afin de tester l'activité antitumorale des composés décrits plus haut, on a utilisé en premier lieu des leucémies murines P388 et L1210. La leucémie P388 est considérée comme très sensible et permet une première sélection. La leucémie L1210 est plus résistante et plus sélective. Une substance ayant une grande activité sur la leucémie L1210 a une grande chance d'être active en clinique humaine (J.M. VENDITTI, Relevance of transplantable animal tumor systems to the Selection of new agents for clinical trial in pharmacologi- cal basis of cancer chemotherapy. The University of Texas ed. Williams and Wilkins, publ. 1975, Baltimore USA) .
D'autre part, la tumeur expérimentale qu'est la leucémie L1210 de la souris est en effet couramment utilisée pour l'évaluation de tous les composés antitumoraux actuellement mis en oeuvre en thérapeutique humaine, ainsi qu'il est décrit, par exemple par C.C. ZUBROD dans Proc. Nat. Acad. Sci. USA 69, 1972, p 1042-1047. Le système tumoral ainsi constitué expérimentalement permet une évaluation quantitative très précise de l'activité du composé testé, et, par conséquent aussi, une comparaison objective entre les activités respectives de différents composés, par exemple selon les méthodes décrites par R.E. SKIPPER, F.M. SCHABEL Jr. et W.S. WILCOX dans Cancer Chemother. Rep., 35, 1964, p 1-111 et 45, 1965, p 5-28.
(§1) En pratique, on a utilisé des souris ayant reçu par voie intrapéritonéale un inoculum de cellules de leucémie L1210 et ayant été, pour la moitié d'entre elles, soumises 24 heures après ladite inoculation tumorale à une injection intrapéritonéale d'une dose unique de l'un des composés à tester : l'autre moitié des souris a reçu une injection d'un volume identique d'un solvant inactif et servait de série témoin. On a réparti les souris au hasard dans chaque série expérimentale. Une première expérimentation de routine a permis de déterminer la mortalité par toxicité et de fixer ainsi les doses infra-létales.
Conformément à la convention en usage dans ce domaine, on considérait comme guéris les animaux qui survivaient plus de 45 jours après l'inoculation de cellules tumorales.
On a ainsi pu déterminer la mortalité par toxicité sous l'effet d'une injection unique de l'un des composés à différentes doses (doses infra-létales, DL 50 et DL 100) et évaluer le taux de survie du groupe d'animaux auxquels on n'avait injecté qu'une dose infra-létale d'un composé selon l'invention.
On a calculé le taux de survie à partir d'une analyse statistique des résultats expérimentaux, par comparaison avec les résultats obtenus avec la série témoin, selon les méthodes bien connues de Mann-Whitey et de Wilcoxon; le pourcentage de cellules leucémiques tuées par le traitement réalisé était calculé par la méthode décrite par H.E. SKIPPER et coll. dans les articles cités plus haut, en prenant pour base, suivant le cas, soit l'augmentation de la survie moyenne en l'absence de survivants, soit le pourcentage de survivants.
Pour l'évaluation de l'activité thérapeutique des composés selon l'invention, on a exprimé les doses dudit composé en les rapportant à la dose infra-létale […], que l'on a posée égale à 1. Cette dose infra-létale s'est en effet avérée plus facile à déterminer pour les composés de l'invention que la DL 10, dont elle est d'ailleurs très voisine et qui est habituellement prise comme référence pour l'évaluation de l'activité thérapeutique de composés à effet antitumoral (voir H.E. SKIPPER et coll., ouvrages cités).

mélanome B 16 = assay: Survival of mice bearing B 16 melanoma, identical protocol; settings: same doses
Excerpt: as §1
(§2) En outre, ces composés présentent une forte activité sur le mélanome B 16 et la tumeur de Lewis, pour les mêmes doses, le protocole étant identique. A titre d'exemple, sur le mélanome B 16, le dérivé 41 augmente de 15 jours la survie des souris traitées; sur la tumeur de Lewis, l'augmentation de survie induite pour ce même dérivé est de 8 jours avec un survivant.

tumeur de Lewis = assay: Survival of mice bearing Lewis tumour, identical protocol; settings: same doses
Excerpt: as §1, §2

[1] = dose 0.02 of the infra-lethal dose
[2] = dose 0.1 of the infra-lethal dose
[3] = dose 0.2 of the infra-lethal dose
[4] = dose 0.25 of the infra-lethal dose
[5] = dose 0.3 of the infra-lethal dose
[6] = dose 0.4 of the infra-lethal dose
[7] = dose 1/5 of the infra-lethal dose
[8] = dose 0.04 of the infra-lethal dose
[9] = dose 0.8 of the infra-lethal dose

Compound	Augmentation survie traitées/contrôle x 100 (leucémie L1210; [1])	Survie moyenne en jours des souris traitées ± erreur standard. (leucémie L1210; [1]) [jours]	% de cellules tumorales tuées par le traitement (leucémie L1210; [1]) [%]	Augmentation survie traitées/contrôle x 100 (leucémie L1210; [3])	Survie moyenne en jours des souris traitées ± erreur standard. (leucémie L1210; [3]) [jours]	% de cellules tumorales tuées par le traitement (leucémie L1210; [3]) [%]	Augmentation survie traitées/contrôle x 100 (leucémie L1210; [6])	Survie moyenne en jours des souris traitées ± erreur standard. (leucémie L1210; [6]) [jours]	% de cellules tumorales tuées par le traitement (leucémie L1210; [6]) [%]	% des cellules leucémiques tuées (leucémie L1210; [7])	index chimiothérapeutique (leucémie L1210)	fraction des cellules survivantes N/No après traitement en fonction de la dose (fraction de la dose infra-létale DLo) (leucémie L1210)	other results
COc1ccc2[nH]c3ccc4cc[n+](CCN5CCC(C6CCN(CC[n+]7ccc8ccc9[nH]c%10ccc(OC)cc%10c9c8c7)CC6)CC5)cc4c3c2c1 [Dérivé 34, Dichlorurede 1'1'-bis 2-(2-méthoxy-10,7-H-pyrido[4,3-c]carbazolium)éthy14,4' bispipéridine]	128	12.2 ± 0.9	98	144	14.3 ± 2.6	99.97	182	18.1 ± 4.5	99.999	99,97%	extrêmement élevé		Nombre d'animaux guéris (leucémie L1210; [2]): 1/15; Augmentation survie traitées/contrôle x 100 (leucémie L1210; [2]): 137; Survie moyenne en jours des souris traitées ± erreur standard. (leucémie L1210; [2]): 13.6 ± 2.9 jours; % de cellules tumorales tuées par le traitement (leucémie L1210; [2]): 94.8%; Augmentation survie traitées/contrôle x 100 (leucémie L1210; [4]): 216; Survie moyenne en jours des souris traitées ± erreur standard. (leucémie L1210; [4]): 18.6 ± 4.5 jours; % de cellules tumorales tuées par le traitement (leucémie L1210; [4]): 99.999%; Augmentation survie traitées/contrôle x 100 (leucémie L1210; [5]): 191; Survie moyenne en jours des souris traitées ± erreur standard. (leucémie L1210; [5]): 17.6 ± 4.5 jours; % de cellules tumorales tuées par le traitement (leucémie L1210; [5]): 99.999%
Oc1ccc2[nH]c3ccc4cc[n+](CCN5CCC(C6CCN(CC[n+]7ccc8ccc9[nH]c%10ccc(O)cc%10c9c8c7)CC6)CC5)cc4c3c2c1 [Dérivé 40]	111	9.4 ± 1.2	94	153	12.9 ± 1.5	99.47	167	13.2 ± 1.9	99.994	99,97%	extrêmement élevé		
COc1ccc2c(c1)c1c3c[n+](CCN4CCC(C5CCN(CC[n+]6ccc7ccc8c(c7c6)c6cc(OC)ccc6n8C)CC5)CC4)ccc3ccc1n2C [Dérivé 41, Dichlorurede 1,1' bis 2-(2-méthyl-7-méthoxy-10,7-H-pyrido [4,3-c]carbazolium) éthyl 4,4' bispipéridine]							140	11.8 ± 0.9	99.8		extrêmement élevé		Augmentation survie traitées/contrôle x 100 (leucémie L1210; [8]): 143; Survie moyenne en jours des souris traitées ± erreur standard. (leucémie L1210; [8]): 11.9 ± 1.2 jours; % de cellules tumorales tuées par le traitement (leucémie L1210; [8]): 99.8%; Nombre d'animaux guéris (leucémie L1210; [6]): 1/15; Augmentation survie traitées/contrôle x 100 (leucémie L1210; [9]): 155; Survie moyenne en jours des souris traitées ± erreur standard. (leucémie L1210; [9]): 12.9 ± 1.9 jours; % de cellules tumorales tuées par le traitement (leucémie L1210; [9]): 99.97%; % des cellules leucémiques tuées (leucémie L1210; dose 1/15 of the infra-lethal dose): 91,8%; augmentation de la survie des souris traitées (mélanome B 16): 15 jours; augmentation de survie (tumeur de Lewis): 8 jours; survivant (tumeur de Lewis): un survivant
O=NN(CCCl)C(=O)NCCCl [bischloréthylnitrosourée (BCNU), bischloréthylnitrosourée, reference compound]												ne sont actives qu'à des doses bien supérieures à celles du dérivé 34	
O=P1(N(CCCl)CCCl)NCCCO1 (stereo not shown) [cyclophosphamide, reference compound]												ne sont actives qu'à des doses bien supérieures à celles du dérivé 34	
